The results in this text go back to patent US7300933B2, “Diazabicyclic biaryl derivatives” (Neurosearch A/S, priority 2002, dated 2007).

The target of one experiment is T1, serotonin transporter (Rattus norvegicus, UniProt P31652).
T1 construct: Cerebral cortices from male Wistar rats (150-200 g) are homogenized; from tissue; host or cells: rat cerebral cortex synaptosomes (P2 pellet)
In words: In vitro inhibition of 3H-5-hydroxytryptamine uptake in cortical synaptosomes. The class given is biochemical. The note with it: 3H-5-HT 1 nM, 30 minutes at 37° C. How it is done:
In vitro Inhibition of ^3H-5-Hydroxytryptamine Uptake in Cortical Synaptosomes
Serotonin transporters/uptake sites on nerve terminals presumably function to terminate neuronal signaling by removing serotonin from the synaptic cleft. The activity of the serotonin transporter integral protein can be measured in vitro by synaptosomal uptake of ^3H-5-hydroxytryptamine (5-HT, serotonin).
Preparations are performed at 0-4° C. Cerebral cortices from male Wistar rats (150-200 g) are homogenized for 5-10 seconds in 100 volumes of ice-cold 0.32 M sucrose containing 1 mM pargyline, using a motor driven teflon pestle in a glass homogenizing vessel. Monoamine oxidase activity is inhibited in the presence of pargyline.
The homogenate is subjected to centrifugation at 1000×g for 10 minutes. The resulting supernatant is then centrifuged at 27,000×g for 50 minutes and the supernatant is discarded. […]
Aliquots of 4.0 ml tissue suspension are added to 100 μl of test solution and 100 μl of ^3H-5-HT (1 nM, final concentration), mixed and incubated for 30 minutes at 37° C. Non-specific uptake is determined using Citalopram (1 μM, final concentration, available from Lundbeck, Denmark). […]
The amount of radioactivity on the filters is determined by conventional liquid scintillation counting. Specific uptake is calculated as the difference between total uptake and non-specific uptake. […]

Experiment [1] deals with T2, α7-subtype of nicotinic receptors (Rattus norvegicus, UniProt Q05941).
T2 construct: Cerebral cortices from male Wistar rats (150-250 g) are homogenised; from tissue; host or cells: rat cerebral cortex membrane homogenate
In words: In vitro inhibition of 3H-α-bungarotoxine binding in rat brain. The note with it: rat cerebral cortex homogenate; 3H-α-bungarotoxine 2 nM; 2 hours at 37° C.

pIC50: −log10 of the molar value. Structures can show the parent of a compound that is named as a salt.

T1 sequence (P31652 whole entry): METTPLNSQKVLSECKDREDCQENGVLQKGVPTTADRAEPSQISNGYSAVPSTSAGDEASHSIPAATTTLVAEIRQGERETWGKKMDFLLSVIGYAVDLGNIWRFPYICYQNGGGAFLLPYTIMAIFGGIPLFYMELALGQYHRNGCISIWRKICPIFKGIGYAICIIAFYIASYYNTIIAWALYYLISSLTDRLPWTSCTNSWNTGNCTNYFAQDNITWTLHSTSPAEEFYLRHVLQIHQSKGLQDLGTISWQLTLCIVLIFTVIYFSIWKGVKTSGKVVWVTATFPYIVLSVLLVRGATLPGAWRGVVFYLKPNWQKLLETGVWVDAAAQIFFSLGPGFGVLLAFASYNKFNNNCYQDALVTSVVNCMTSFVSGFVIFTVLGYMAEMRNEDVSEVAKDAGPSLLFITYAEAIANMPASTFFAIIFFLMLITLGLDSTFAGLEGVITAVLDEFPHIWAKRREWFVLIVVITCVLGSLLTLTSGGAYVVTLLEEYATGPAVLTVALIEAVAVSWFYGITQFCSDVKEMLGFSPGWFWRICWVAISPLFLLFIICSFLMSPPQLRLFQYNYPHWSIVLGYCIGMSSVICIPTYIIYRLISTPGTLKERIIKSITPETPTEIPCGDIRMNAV
T2 sequence (Q05941 23-502): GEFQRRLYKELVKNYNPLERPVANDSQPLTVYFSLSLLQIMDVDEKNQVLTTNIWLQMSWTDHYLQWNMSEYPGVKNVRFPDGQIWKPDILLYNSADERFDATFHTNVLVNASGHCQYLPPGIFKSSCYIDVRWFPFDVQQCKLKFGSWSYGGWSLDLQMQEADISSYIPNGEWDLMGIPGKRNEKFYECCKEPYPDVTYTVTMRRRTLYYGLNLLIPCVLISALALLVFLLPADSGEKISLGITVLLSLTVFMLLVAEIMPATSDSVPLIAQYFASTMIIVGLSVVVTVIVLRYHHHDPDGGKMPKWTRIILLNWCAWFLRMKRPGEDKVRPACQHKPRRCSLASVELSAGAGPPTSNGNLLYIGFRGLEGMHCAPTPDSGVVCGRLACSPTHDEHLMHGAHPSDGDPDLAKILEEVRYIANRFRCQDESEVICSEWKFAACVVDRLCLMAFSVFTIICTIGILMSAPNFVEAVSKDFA

A word on the pIC50: it is −log10 of the IC50, conventionally taken in molar units. A higher pIC50 goes with a low IC50. As for `c1cc(-c2cnc(N3C[C@@H]4C[C@H]3CN4)cn2)cs1` [Compound 1H, 2-[5-(3-Thienyl)-2-pyrazinyl]-(1S,4S)-2,5-diazabicyclo-[2.2.1]-heptane fumaric acid salt], the results for the negative-log IC50 (pIC50) (against serotonin transporter; in experiment [1]) were 7.68 and 6.59, respectively.

In the case of `c1cc(-c2ccc(N3C[C@@H]4C[C@H]3CN4)nn2)cs1` [Compound 1A, 2-[6-(3-Thienyl)-3-pyridazinyl]-(1S,4S)-2,5-diazabicyclo-[2.2.1]-heptane fumaric acid salt], on serotonin transporter, the negative-log IC50 (pIC50) was 6.29.

Consider `CN1C[C@@H]2C[C@H]1CN2c1ccc(-c2ccsc2)nn1` [Compound 1B, 5-Methyl-2-[6-(3-thienyl)-3-pyridazinyl]-(1S,4S)-2,5-diazabicyclo-[2.2.1]-heptane], for which the pIC50 in experiment [1] was 6.70.
